# Entries after “also recorded” stand apart in the source; their conditions may differ.
# Columns and labels:
# lymphedema = conditions: cited from earlier work
# CD4+ cells = assay: CD4+ cell flow cytometry of lymph nodes and hind limb skin after PLND and adoptive transfer, with or without FTY720; assay type: in vivo, mouse; conditions: CD4KO mice, PLND, 24 hours after adoptive transfer of CD4+ cells
# Protocol: Metzler et al., Int. Immunol. 20:633 (2008); Kharel et al., J. Biol. Chem. 280:36865 (2005). Control animals were treated with vehicle alone.
# To induce lymphedema, we used a mouse tail model in which a 5 vmm portion of the mid-tail is excised and the deep lymphatic collecting vessels are ligated. Avraham et al., Am. J. Pathol. 177:3202 (2010); Clavin et al., Am. J. Physiol. Heart Circ. Physiol. 295:H2113 (2008); Rutkowski et al., Microvasc. Res. 72:161 (2006); Tabibiazar et al., PloS Med 3:e254 (2006). This model reliably results in sustained tail swelling, severe impairment in lymphatic function, and histopathologic features consistent with clinical lymphedema, lasting as long as 10 weeks after surgery. Avraham et al., Am. J. Pathol. 177:3202 (2010); Clavin et al., Am. J. Physiol. Heart Circ. Physiol. 295:H2113 (2008); Rutkowski et al., Microvasc. Res. 72:161 (2006); Tabibiazar et al., PloS Med 3:e254 (2006). […]
# Culture expanded naïve CD4^+ cells (1×10^7) were suspended in 100 μL of sterile phosphate buffered saline (PBS) and adoptively transferred to CD4KO mice by weekly retro-orbital sinus injections beginning two weeks after surgery for 2 or 4 weeks (for PLND or lymphatic tail ablation, respectively), followed by sacrifice. […] Delivery of CD4^+ cells was confirmed using flow cytometry to quantify CD4^+ cells in single cell suspensions created from spleens and aortic lymph nodes. […]
# [1] = system: lymphedema (mouse tail lymphatic ablation); assay: Mouse tail skin/lymphatic ablation model of lymphedema, 6 weeks of treatment; assay type: in vivo; conditions: wild-type mice, 6 weeks after lymphatic ablation
# Excerpt: To determine if FTY720 treatment can be useful for treating lymphedema, we next performed tail skin/lymphatic ablations on wild-type mice and treated experimental animals with FTY720 and control animals with vehicle only for 6 weeks.
# To induce lymphedema, we used a mouse tail model in which a 5 vmm portion of the mid-tail is excised and the deep lymphatic collecting vessels are ligated. Avraham et al., Am. J. Pathol. 177:3202 (2010); Clavin et al., Am. J. Physiol. Heart Circ. Physiol. 295:H2113 (2008); Rutkowski et al., Microvasc. Res. 72:161 (2006); Tabibiazar et al., PloS Med 3:e254 (2006). This model reliably results in sustained tail swelling, severe impairment in lymphatic function, and histopathologic features consistent with clinical lymphedema, lasting as long as 10 weeks after surgery. Avraham et al., Am. J. Pathol. 177:3202 (2010); Clavin et al., Am. J. Physiol. Heart Circ. Physiol. 295:H2113 (2008); Rutkowski et al., Microvasc. Res. 72:161 (2006); Tabibiazar et al., PloS Med 3:e254 (2006). In other experiments, animals were randomized to either PLND or sham surgery. PLND was performed as previously reported, removing the nodes, surrounding fat pad, and afferent/efferent lymphatics. Control animals underwent sham popliteal surgeries where a skin incision was made in the area of the popliteal lymph node without nodal resection. Although sustained lymphedema is not observed here, it has previously been described as a means of analyzing regeneration of collateral lymphatics and collecting lymphatic pumping capacity. Proulx et al., Biomaterials 34:5128 (2013); Sharma et al., Am. J. Physiol. Heart and Circul. Physiol. 292:H3109 (2007).
# In other experiments, WT mice underwent tail or popliteal lymphatic ablation surgeries and were subsequently randomized to treatment with FTY720 (Sigma Aldrich, St. Louis, Mo.), an […] modulator that blocks lymphocyte egress from lymph nodes. Metzler et al., Int. Immunol. 20:633 (2008); Kharel et al., J. Biol. Chem. 280:36865 (2005). Briefly, FTY720 was dissolved in water as per the manufacturer's recommendations, and supplied ad libitum starting the day of lymphatic ablation. Mice received an estimated 1.25 mg/kg/day for 2 or 6 weeks (for PLND or tail surgeries, respectively) until tissues were harvested. […]
# Tail volumes were calculated weekly using the truncated cone formula. […]
# Subcutaneous adipose tissue thickness measurements were analyzed by 2 blinded reviewers (n=5-6 animals/group) using standardized cross-sections by measuring from the width of tissues bounded by the reticular dermis to the deep fascia in 4 standardized regions per section. Capillary lymphatic vessel area was quantified as previously described using Panoramic viewer software (3DHistech, Budapest, Hungary) in four 40× high-power fields/animal per group. […]
# [2] = FTY720 estimated 1.25 mg/kg/day in water, vs vehicle
SMILES,clinical success in patients with lymphedema (lymphedema),toxicity (lymphedema; patients with lymphedema),CD4+ cells in the hind limb skin (CD4+ cells; vs vehicle treated PLND mice),"accumulation of CD4+ cells in the inguinal lymph node (CD4+ cells; vs vehicle, FTY720 in drinking water, estimated 1.25 mg/kg/day)","tail fibrosis (gross analysis) [1, 2]","tail swelling (gross analysis) [1, 2]","fibroadipose tissue deposition (thickness) ([1]; cross-sectional histology, vs vehicle control)",tail volumes (percentage change) ([1]; vs vehicle control)
O=c1ccc2ccccc2o1 [Coumarin],modest success,significant toxicity including liver failure and death,–,–,–,–,–,–
"CCCCCCCCc1ccc(CCC(N)(CO)CO)cc1 [FTY720, 2-amino-2-[2-(4-octylphenyl)ethyl]propane-1,3-diol]",–,–,decreased the number of these cells in hind limb skin; also recorded: marked decrease,prevented release of CD4+ cells from the lymph node; also recorded: increased significantly,lack of swelling and fibrosis; also recorded: markedly decreased,lack of swelling; also recorded: markedly decreased,decreased fibroadipose tissue deposition; also recorded: significant decreases,lack of swelling; also recorded: significant decreases

# Source: US10548858B2, “Inhibition of sphingosine 1-phosphate receptor for treatment and prevention of lymphedema” (Memorial Sloan Kettering Cancer Center, priority 2016, dated 2020)
